Measurements: patent US11661422B2, “Tricyclic urea compounds as JAK2 V617F inhibitors” (Incyte Corporation, priority 2020, dated 2023)
pIC50: −log10 of the molar value. Where a name gives a salt, the structure may show the parent alone.

Assays:
[1] = target: catalytic domain (JH1, amino acids 826-1132) of human JAK2 (Homo sapiens (Human), UniProt O60674); assay: JAK2 LanthaScreen JH1 Binding Assay; details: JAK2 JH1 1.5 nM, 50 nM fluorescent tracer, 2 hours at 25° C.; read-out: JH1 BIND IC50
Procedure: Example A. JAK2 LanthaScreen JH1 Binding Assay
(§1) JAK2 JH1 binding assay utilizes catalytic domain (JH1, amino acids 826-1132) of human JAK2 expressed as N-terminal FLAG-tagged, biotinylated protein in a baculovirus expression system (Carna Biosciences, Product #08-445-20N). The assay was conducted in black 384-well polystyrene plates in a final reaction volume of 20 μL. JAK2 JH1 (1.5 nM) was incubated with compounds (100 nL serially diluted in DMSO) in the presence of 50 nM Fluorescent JAK2-JH1 Tracer and 0.5 nM Streptavidin-Tb cryptate (Cisbio Part #610SATLB) in assay buffer (50 mM Tris, pH=7.5, 10 mM MgCl2, 0.01% Brij-35, 0.1% BSA, 1 mM EGTA, 5% Glycerol and 5 mM DTT). Non-specific binding was accessed in the presence of 2 mM ATP. After incubation for 2 hours at 25° C., LanthaScreen signals were read on a PHERAstar FS plate reader (BMG LABTECH). Data was analyzed with IDBS XLfit and GraphPad Prism 5.0 software using a four parameter dose response curve to determine IC50 for each compound.

[2] = target: pseudo-kinase domain (JH2, amino-acids 536-812) of human Wild Type JAK2 (Homo sapiens (Human), UniProt O60674, F794H/W659A/W777A); assay: JAK2 LanthaScreen JH2-WT Binding Assay; details: JAK2 JH2-WT 0.145 nM, 50 nM fluorescent tracer, 1 hour at 25° C.; read-out: JH2 BIND WT IC50
Procedure: Example B. JAK2 LanthaScreen JH2-WT Binding Assay
as §1, with “The” for “JAK2 JH1 binding assay utilizes catalytic domain (JH1, amino acids 826-1132) of human JAK2 expressed as N-terminal FLAG-tagged, biotinylated protein in a baculovirus expression system (Carna Biosciences, Product #08-445-20N). The”, “JH2-WT (0.145” for “JH1 (1.5”, “JAK2-JH2” for “JAK2-JH1”, “Tracer (MedChem Express Catalog #HY-102055)” for “Tracer”, “0.25” for “0.5”, “1 hour” for “2 hours”

[3] = target: pseudo-kinase domain (JH2, amino-acids 536-812) of human V617F mutant JAK2 (Homo sapiens (Human), UniProt O60674, F794H/V617F/W659A/W777A); assay: JAK2 LanthaScreen JH2-V617F Binding Assay; details: JAK2 JH2-V617F 0.26 nM, 50 nM fluorescent tracer, 1 hour at 25° C.; read-out: JH2 BIND V617F IC50
Procedure: The assay was conducted in black 384-well polystyrene plates in a final reaction volume of 20 μL. […] Non-specific binding was accessed in the presence of 2 mM ATP. After incubation for 1 hour at 25° C., LanthaScreen signals were read on a PHERAstar FS plate reader (BMG LABTECH). Data was analyzed with IDBS XLfit and GraphPad Prism 5.0 software using a four parameter dose response curve to determine IC50 for each compound.

[4] = target: catalytic domain (JH1, amino acids 808-1132) of human JAK2 (Homo sapiens (Human), UniProt O60674); assay: JAK2 HTRF Enzyme Activity Assay; type: biochemical; details: JAK2 0.015 nM, ATP (30 μM or 1 mM), 60 minutes at 25° C.
Procedure: Example D. JAK2 HTRF Enzyme Activity Assay
JAK2 enzyme activity assays utilize catalytic domain (JH1, amino acids 808-1132) of human JAK2 expressed as N-terminal His-tagged protein in a baculovirus expression system (BPS Bioscience, Catalog #40450). The assays was conducted in black 384-well polystyrene plates in a final reaction volume of 20 μL. JAK2 (0.015 nM) was incubated with compounds (100 nL serially diluted in DMSO) in the presence of ATP (30 μM or 1 mM) and 500 nM Biotin-labeled […] (SEQ ID NO.: 1) peptide (BioSource International, custom synthesis) in assay buffer (50 mM Tris, pH=7.5, 10 mM MgCl2, 0.01% Brij-35, 0.1% BSA, 1 mM EGTA, 5% Glycerol and 5 mM DTT) for 60 minutes at 25° C. The reactions were stopped by the addition of 10 μL of detection buffer (50 mM Tris, pH 7.8, 0.5 mg/mL BSA, 150 mM NaCl), supplemented with EDTA, LANCE Eu-W1024 anti-phosphotyrosine (PY20), (PerkinElmer, Catalog #AD0067) and Streptavidin SureLight APC (PerkinElmer Catalog #CR130-100), for a final concentration of 15 mM, 1.5 nM and 75 nM, respectively. HTRF signals were read after 30 minutes incubation at room temperature on a PHERAstar FS plate reader (BMG LABTECH). Data was analyzed with IDBS XLfit and GraphPad Prism 5.0 software using a four parameter dose response curve to determine IC50 for each compound.

Sequence of catalytic domain (JH1, amino acids 808-1132) of human JAK2 (O60674 808-1132): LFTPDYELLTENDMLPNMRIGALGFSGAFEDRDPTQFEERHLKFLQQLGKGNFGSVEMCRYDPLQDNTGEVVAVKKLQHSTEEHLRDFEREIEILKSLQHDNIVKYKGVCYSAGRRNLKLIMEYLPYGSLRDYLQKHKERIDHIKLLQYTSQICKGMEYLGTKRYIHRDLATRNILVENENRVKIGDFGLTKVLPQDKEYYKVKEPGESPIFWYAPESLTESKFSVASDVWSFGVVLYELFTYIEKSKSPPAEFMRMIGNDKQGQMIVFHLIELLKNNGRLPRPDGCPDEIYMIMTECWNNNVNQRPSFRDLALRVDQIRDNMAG
Sequence of pseudo-kinase domain (JH2, amino-acids 536-812) of human Wild Type JAK2 (O60674 536-812 W659A/W777A/F794H): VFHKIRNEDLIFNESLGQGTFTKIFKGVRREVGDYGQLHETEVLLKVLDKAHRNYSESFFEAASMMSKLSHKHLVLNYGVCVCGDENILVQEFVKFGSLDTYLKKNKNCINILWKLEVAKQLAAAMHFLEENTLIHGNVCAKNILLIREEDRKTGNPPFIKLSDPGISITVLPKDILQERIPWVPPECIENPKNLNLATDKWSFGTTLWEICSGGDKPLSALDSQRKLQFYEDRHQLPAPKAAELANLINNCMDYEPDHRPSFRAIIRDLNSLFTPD
Sequence of catalytic domain (JH1, amino acids 826-1132) of human JAK2 (O60674 826-1132): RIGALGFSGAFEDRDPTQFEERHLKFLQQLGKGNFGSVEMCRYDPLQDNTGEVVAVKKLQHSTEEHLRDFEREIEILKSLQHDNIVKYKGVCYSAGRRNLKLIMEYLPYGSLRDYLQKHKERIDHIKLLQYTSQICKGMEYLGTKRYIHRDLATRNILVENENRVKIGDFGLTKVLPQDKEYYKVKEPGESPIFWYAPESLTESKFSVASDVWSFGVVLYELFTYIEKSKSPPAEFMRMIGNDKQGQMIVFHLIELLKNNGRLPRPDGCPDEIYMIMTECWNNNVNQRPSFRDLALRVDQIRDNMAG
Sequence of pseudo-kinase domain (JH2, amino-acids 536-812) of human V617F mutant JAK2 (O60674 536-812 V617F/W659A/W777A/F794H): as the sequence (O60674 536-812 W659A/W777A/F794H) above, with V82F counted along it

Row | SMILES | pIC50 [1] | pIC50 [2] | pIC50 [3] | pIC50 [4]
1 | CN1C(=O)N(c2ccc(C(=O)O)cc2)Cc2c1cnc1[nH]c(-c3ccc(CN4CCC(S(C)(=O)=O)CC4)cc3)c(-c3ccn(C)c3)c21 [Example 22, 4-(4-Methyl-9-(1-methyl-1H-pyrrol-3-yl)-8-(4-((4-(methylsulfonyl)piperidin-1-yl)methyl)phenyl)-3-oxo-1,3,4,7-tetrahydro-2H-pyrrolo[3′,2′:5,6]pyrido[3,4-d]pyrimidin-2-yl)benzoic acid trifluoroacetic acid salt] | 5.60 to 6.00 | ≥ 7.00 | ≥ 7.00 | 5.60 to 6.00
2 | CN1C(=O)N(c2ccc(C(=O)O)cc2)Cc2c1cnc1[nH]c(-c3ccc(CN4CCC(S(C)(=O)=O)CC4)cc3)c(C3CC3)c21 [Example 23, 4-(9-Cyclopropyl-4-methyl-8-(4-((4-(methylsulfonyl)piperidin-1-yl)methyl)phenyl)-3-oxo-1,3,4,7-tetrahydro-2H-pyrrolo[3′,2′:5,6]pyrido[3,4-d]pyrimidin-2-yl)benzoic acid, trifluoroacetic acid salt] | < 5.60 | ≥ 7.00 | ≥ 7.00 | < 5.60
3 | CN1C(=O)N(c2ccc(C(=O)O)cc2)Cc2c1cnc1[nH]c(-c3ccc(CN4CCC(S(C)(=O)=O)CC4)cc3)c(C#N)c21 [Example 24, 4-(9-Cyano-4-methyl-8-(4-((4-(methylsulfonyl)piperidin-1-yl)methyl)phenyl)-3-oxo-1,3,4,7-tetrahydro-2H-pyrrolo[3′,2′:5,6]pyrido[3,4-d]pyrimidin-2-yl)benzoic acid Trifluoroacetic Acid Salt] | < 5.60 | 6.30 to 7.00 | 6.30 to 7.00 | < 5.60
4 | CN1C(=O)N(c2ccc(C(=O)O)cc2)Cc2c1cnc1[nH]c(-c3ccc(CN4CCC(S(C)(=O)=O)CC4)cc3)c(I)c21 [Example 25, 4-(9-Iodo-4-methyl-8-(4-((4-(methylsulfonyl)piperidin-1-yl)methyl)phenyl)-3-oxo-1,3,4,7-tetrahydro-2H-pyrrolo[3′,2′:5,6]pyrido[3,4-d]pyrimidin-2-yl)benzoic acid Trifluoroacetic Acid Salt] | 6.00 to 6.30 | ≥ 7.00 | ≥ 7.00 | 5.60 to 6.00
5 | COc1ccc(-c2c(C3CC3)[nH]c3ncc4c(c23)CN(c2ccc(C(=O)O)cc2)C(=O)N4C)cc1 [Example 26, 4-(8-Cyclopropyl-9-(4-methoxyphenyl)-4-methyl-3-oxo-1,3,4,7-tetrahydro-2H-pyrrolo[3′,2′:5,6]pyrido[3,4-d]pyrimidin-2-yl)benzoic acid] | < 5.60 | 6.30 to 7.00 | 6.30 to 7.00 | < 5.60
